Measured values as given in US10689362B2, “Quinoxaline compounds as type III receptor tyrosine kinase inhibitors” (Development Center for Biotechnology, priority 2016, dated 2020).

Experiments:
[1] = target: CSF-1R kinase (Homo sapiens (Human), UniProt P07333); test: CSF-1R kinase assay (AlphaScreen); assay type: biochemical
Description: Inhibition of CSF-1R kinase activity by a test compound disclosed herein was estimated by AlphaScreen (PerkinElmer). […] Reactions were incubated at 30° C. for 45 min and stopped by adding 5 μL of 50 mM EDTA. Analysis of resulting product using an AlphaScreen kit, and counted with Enspire Alpha (PerkinElmer). […] The IC50 values of quinoxaline compounds of this invention against CSF-1R kinase were determined using the GraphPad Prism 5 software.

[2] = target: PDGFRβ kinase (Homo sapiens (Human), UniProt P09619); test: PDGFRβ kinase assay (radiometric); assay type: biochemical; conditions: bound
PDGFRβ kinase, sequence (P09619 33-1106): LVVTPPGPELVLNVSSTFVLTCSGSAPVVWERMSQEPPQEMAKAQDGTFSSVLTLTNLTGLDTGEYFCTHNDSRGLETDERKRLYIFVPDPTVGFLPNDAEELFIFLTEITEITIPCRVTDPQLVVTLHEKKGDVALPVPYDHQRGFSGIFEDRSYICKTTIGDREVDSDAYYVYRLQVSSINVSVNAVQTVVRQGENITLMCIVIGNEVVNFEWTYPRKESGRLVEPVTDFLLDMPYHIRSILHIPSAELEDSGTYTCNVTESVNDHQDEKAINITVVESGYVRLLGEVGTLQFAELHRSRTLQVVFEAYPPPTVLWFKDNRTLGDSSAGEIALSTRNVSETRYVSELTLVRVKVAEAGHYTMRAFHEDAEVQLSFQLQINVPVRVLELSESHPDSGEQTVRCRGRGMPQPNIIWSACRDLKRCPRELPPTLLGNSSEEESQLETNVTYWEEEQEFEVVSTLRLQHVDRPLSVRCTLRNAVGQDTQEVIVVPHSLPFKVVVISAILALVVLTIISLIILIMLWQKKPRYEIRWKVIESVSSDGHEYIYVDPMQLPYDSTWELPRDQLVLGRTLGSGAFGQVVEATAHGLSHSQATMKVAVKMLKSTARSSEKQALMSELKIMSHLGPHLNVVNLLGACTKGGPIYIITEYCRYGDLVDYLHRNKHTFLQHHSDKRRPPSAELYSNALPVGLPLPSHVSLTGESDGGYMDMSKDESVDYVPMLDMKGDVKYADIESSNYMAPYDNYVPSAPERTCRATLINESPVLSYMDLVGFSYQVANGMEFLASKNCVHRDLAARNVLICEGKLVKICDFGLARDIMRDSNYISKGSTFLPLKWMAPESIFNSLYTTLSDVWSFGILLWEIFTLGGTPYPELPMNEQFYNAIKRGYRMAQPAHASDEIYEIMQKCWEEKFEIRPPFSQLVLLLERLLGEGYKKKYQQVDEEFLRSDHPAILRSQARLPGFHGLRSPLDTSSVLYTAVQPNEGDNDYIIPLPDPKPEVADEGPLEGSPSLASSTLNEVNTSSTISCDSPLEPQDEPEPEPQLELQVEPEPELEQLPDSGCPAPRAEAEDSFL
Description: (§1) Inhibition of PDGFRβ kinase activity by a test compound disclosed herein was estimated by radiometric assay. Standard assay conditions were 10 ng of recombinant PDGFRβ (SignalChem) with 2 μg of substrate Poly-(Glu 4:Tyr 1) (sigma) in the assay buffer in kinase reaction buffer (10 mM MOPS pH 7.0, 0.21 mM EDTA, 0.5% glycerol, 0.001% Brij-35, 0.01 2-mercaptoehtanol, 1 mg/ml BSA, 10 mM MgCl2, 10 mM MnCl2, 10 μM ATP, 0.1 μCi per well [^33P]-ATP), in the presence of test compound (diluted in final concentration of 4% DMSO) or DMSO control, with a final volume of 25 μl for 60 minutes at 30° C. The reaction was stopped by adding 5 μl of 3% phosphoric acid solution. Total reaction solution was then harvested onto a filter plate (UniFilter-96 GF/B, PerkinElmer), and washed 20 times for 5 min with dH2O. 30 μl of MicroScint™-20 Cocktail (PerkinElmer) was added to dried plate. The plate was sealed and counted using a TopCount scintillation detector (PerkinElmer). […] The IC50 values of quinoxaline compounds of this invention against PDGFRβ kinase were determined using the GraphPad Prism 5 software.
(§2) The IC50 values for selected quinoxaline compounds of this invention against CSF-1R, c-KIT, FLT3, and PDGFRβ are summarized in Table 3.

[3] = test system: Kasumi-1 human acute myeloid leukemia cell with c-KIT N822K activating mutation; test: Kasumi-1 cell proliferation assay (CellTiter-96); assay type: cell-based; conditions: Cytotoxicity, Kasumi-1 cells, 72 hours
Description: (§3) Inhibition of cell growth by compounds was measured using CellTiter™-96 assay. The cytotoxicity of compounds was evaluated in CSF-1-dependent M-NFS-60 mouse myeloid leukemia cell, FLT3 signal addicted MV4-11 human acute myeloid leukemia cell with FLT3-ITD mutation, c-KIT signal addicted Kasumi-1 human acute myeloid leukemia cell with c-KIT N822K activating mutation, and THP-1 human acute monocytic leukemia cell harboring NRAS G12D mutation.
(§4) The compounds disclosed herein were tested in Kasumi cell proliferation assay to determine their cellular potency against c-KIT kinase. Kasumi human acute myeloid leukemia cells harbor ligand-independent N822K c-KIT activating mutation, thus the cell proliferation relied on c-KIT signal. Inhibition of c-KIT kinase activity will cause reduced growth and/or cell death. […] Cells were allowed to expand until reaching saturation at which point they were subcultured or harvested for assay use.
(§5) M-NFS-60, Kasumi-1, MV4-11 and THP-1 cells were seeded into 96-well plates at 2000, 64000, 6500, and 5000 cells/well, respectively, and incubated at 37° C., 5% CO2 overnight. Then, these seeded cells were treated with increasing concentrations of the test compounds and incubated for another 72 hours. At the end of the incubation, CellTiter96® AQueous One Solution Reagent (Promega) was added and incubated for 4 hours. Cell viability was determined by measuring absorbance at 490 nm using EMax® microplate reader (Molecular Devices).

[4] = test system: CSF-1-dependent M-NFS-60 mouse myeloid leukemia cell; test: M-NFS-60 cell proliferation assay (CellTiter-96); assay type: cell-based; conditions: Cytotoxicity, M-NFS-60 cells, 72 hours
Description: as §3
The compounds disclosed herein were tested in M-NFS-60 cell proliferation assay to determine their cellular potency against CSF-1R. […] Inhibition of CSF-1R kinase activity will cause reduced growth and/or cell death. […] Cells were allowed to expand until reaching saturation at which point they were subcultured or harvested for assay use.
as §5

[5] = test system: MV4-11 human acute myeloid leukemia cell with FLT3-ITD mutation; test: MV4-11 cell proliferation assay (CellTiter-96); assay type: cell-based; conditions: Cytotoxicity, MV4-11 cells, 72 hours
Description: as §3
as §4, with “MV4-11” for “Kasumi”, “FLT3” for “c-KIT”, “FLT3-ITD” for “N822K c-KIT”, “which render its” for “thus the cell”, “FLT3-ITD dependent.” for “relied on c-KIT signal.”
as §5

[6] = target: c-KIT kinase (Homo sapiens (Human), UniProt P10721); test: c-KIT kinase assay (radiometric); assay type: biochemical
c-KIT kinase, sequence (P10721 26-976): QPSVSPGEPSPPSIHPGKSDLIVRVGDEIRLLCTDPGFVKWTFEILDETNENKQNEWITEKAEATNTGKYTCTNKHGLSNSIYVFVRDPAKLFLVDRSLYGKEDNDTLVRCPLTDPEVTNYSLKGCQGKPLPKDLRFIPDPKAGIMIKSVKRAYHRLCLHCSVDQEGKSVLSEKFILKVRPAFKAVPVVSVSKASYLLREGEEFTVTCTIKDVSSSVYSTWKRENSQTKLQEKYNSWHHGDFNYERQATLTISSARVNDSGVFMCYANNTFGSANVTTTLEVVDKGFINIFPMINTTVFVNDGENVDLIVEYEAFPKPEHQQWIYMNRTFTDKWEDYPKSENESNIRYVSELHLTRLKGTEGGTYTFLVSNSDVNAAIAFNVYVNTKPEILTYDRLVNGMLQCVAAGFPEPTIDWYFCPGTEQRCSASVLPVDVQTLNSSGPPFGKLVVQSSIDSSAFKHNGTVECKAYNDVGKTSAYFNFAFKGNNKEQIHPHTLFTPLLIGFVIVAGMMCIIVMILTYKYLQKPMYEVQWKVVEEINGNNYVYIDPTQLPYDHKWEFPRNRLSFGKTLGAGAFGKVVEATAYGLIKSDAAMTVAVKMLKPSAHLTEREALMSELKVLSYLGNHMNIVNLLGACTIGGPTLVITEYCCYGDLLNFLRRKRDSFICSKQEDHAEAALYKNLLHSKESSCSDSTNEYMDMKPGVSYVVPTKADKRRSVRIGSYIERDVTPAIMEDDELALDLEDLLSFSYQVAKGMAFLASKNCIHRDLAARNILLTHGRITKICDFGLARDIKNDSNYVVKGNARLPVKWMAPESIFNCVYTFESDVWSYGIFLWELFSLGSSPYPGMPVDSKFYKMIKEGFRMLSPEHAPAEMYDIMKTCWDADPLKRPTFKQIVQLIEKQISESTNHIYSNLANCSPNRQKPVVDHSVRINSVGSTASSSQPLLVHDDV
Description: as §1, with “of c-KIT” for “of PDGFRβ”, “were 20” for “were 10”, “recombinant c-Kit” for “recombinant PDGFRβ”, “well [^33P]-ATP,” for “well [^33P]-ATP),”, “against c-KIT” for “against PDGFRβ”
as §2

[7] = target: FLT3 kinase (Homo sapiens (Human), UniProt P36888); test: FLT3 kinase assay (radiometric); assay type: biochemical
FLT3 kinase, sequence (P36888 27-993): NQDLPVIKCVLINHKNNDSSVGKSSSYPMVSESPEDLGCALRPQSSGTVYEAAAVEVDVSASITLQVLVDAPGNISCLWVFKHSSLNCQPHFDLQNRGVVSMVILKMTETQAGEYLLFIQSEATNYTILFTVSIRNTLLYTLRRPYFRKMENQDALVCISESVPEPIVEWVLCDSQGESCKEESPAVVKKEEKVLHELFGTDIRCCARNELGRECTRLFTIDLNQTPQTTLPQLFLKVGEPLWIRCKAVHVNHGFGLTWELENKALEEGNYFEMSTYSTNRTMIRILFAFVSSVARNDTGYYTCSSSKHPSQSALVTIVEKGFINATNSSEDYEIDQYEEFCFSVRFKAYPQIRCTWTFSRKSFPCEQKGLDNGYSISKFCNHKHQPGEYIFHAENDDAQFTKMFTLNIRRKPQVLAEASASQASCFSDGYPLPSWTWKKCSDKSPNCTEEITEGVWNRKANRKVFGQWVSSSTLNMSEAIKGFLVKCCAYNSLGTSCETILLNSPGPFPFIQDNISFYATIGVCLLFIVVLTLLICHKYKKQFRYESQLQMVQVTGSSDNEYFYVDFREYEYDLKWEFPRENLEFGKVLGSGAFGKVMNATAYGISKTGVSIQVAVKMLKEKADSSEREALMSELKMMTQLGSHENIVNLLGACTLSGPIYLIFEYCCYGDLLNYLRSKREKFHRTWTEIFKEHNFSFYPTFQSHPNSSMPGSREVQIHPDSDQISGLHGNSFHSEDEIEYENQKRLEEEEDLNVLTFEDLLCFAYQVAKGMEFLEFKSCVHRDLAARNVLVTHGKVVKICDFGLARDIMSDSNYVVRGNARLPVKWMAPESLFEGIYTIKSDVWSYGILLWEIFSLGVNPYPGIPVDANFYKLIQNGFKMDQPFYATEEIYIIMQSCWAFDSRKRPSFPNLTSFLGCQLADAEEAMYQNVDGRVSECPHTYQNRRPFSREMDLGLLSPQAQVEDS
Description: Inhibition of FLT3 kinase activity by a test compound disclosed herein was estimated by radiometric assay. Standard assay conditions were 5 ng of recombinant FLT3 (Thermo Fisher) with 2 μg of substrate Poly-(Glu 4:Tyr 1) (sigma) in the assay buffer in kinase reaction buffer (10 mM MOPS pH 7.0, 0.21 mM EDTA, 0.5% glycerol, 0.001% Brij-35, 0.01 2-mercaptoehtanol, 1 mg/ml BSA, MgCl2 10 mM, 10 μM ATP, 0.1 μCi per well [^33P]-ATP, in the presence of test compound (diluted in final concentration of 4% DMSO) or DMSO control, with a final volume of 25 μl for 60 minutes at 30° C. The reaction was stopped by adding 5 μl of 3% phosphoric acid solution. Total reaction solution was then harvested onto a filter plate (UniFilter-96 GF/B, PerkinElmer), and washed 20 times for 5 min with dH2O. 30 μl of MicroScint™-20 Cocktail (PerkinElmer) was added to dried plate. The plate was sealed and counted using a TopCount scintillation detector (PerkinElmer). […] The IC50 values of quinoxaline compounds of this invention against FLT3 kinase were determined using the GraphPad Prism 5 software.
as §2

[8] = test system: THP-1 human acute monocytic leukemia cell harboring NRAS G12D mutation; test: THP-1 cell proliferation assay (counter screen, CellTiter-96); assay type: cell-based; conditions: Cytotoxicity, THP-1 cells (counter screen), 72 hours
Description: as §3
THP-1 human acute monocytic leukemia cells harbor NRAS G12D mutation, which renders cell proliferate independently of class III RTKs signal. […] Cells were allowed to expand until reaching saturation at which point they were subcultured or harvested for assay use.
as §5

CSF-1R kinase, sequence (P07333 20-972): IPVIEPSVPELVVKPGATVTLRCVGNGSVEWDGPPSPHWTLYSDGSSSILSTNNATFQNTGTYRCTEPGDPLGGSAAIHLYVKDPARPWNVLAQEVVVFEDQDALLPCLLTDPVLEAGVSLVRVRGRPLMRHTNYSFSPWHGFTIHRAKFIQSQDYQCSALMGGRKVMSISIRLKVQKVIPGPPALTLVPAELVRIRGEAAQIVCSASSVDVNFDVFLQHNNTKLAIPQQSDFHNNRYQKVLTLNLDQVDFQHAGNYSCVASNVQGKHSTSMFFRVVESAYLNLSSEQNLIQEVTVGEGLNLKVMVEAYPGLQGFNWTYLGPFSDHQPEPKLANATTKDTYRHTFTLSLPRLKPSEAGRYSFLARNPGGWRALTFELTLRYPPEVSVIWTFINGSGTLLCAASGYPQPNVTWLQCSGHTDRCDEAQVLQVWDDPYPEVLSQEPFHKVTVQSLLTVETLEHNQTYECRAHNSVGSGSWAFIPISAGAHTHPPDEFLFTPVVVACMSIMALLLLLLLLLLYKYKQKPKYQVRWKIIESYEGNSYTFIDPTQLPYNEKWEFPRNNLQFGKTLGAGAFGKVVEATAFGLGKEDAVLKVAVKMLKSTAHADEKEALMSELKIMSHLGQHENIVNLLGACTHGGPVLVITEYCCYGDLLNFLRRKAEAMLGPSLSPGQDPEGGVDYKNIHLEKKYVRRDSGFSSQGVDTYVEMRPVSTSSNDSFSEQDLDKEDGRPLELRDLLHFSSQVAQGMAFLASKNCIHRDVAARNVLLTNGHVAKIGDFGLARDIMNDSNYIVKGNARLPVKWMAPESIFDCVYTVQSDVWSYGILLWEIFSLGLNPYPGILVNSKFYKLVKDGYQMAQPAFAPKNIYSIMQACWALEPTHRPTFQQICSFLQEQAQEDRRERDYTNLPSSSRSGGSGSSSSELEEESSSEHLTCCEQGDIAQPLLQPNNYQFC

Structure (SMILES) | IC50 ([1]; class symbol) [nM] | IC50 [2] [nM] | IC50 ([6]; class symbol) [nM] | IC50 ([7]; bound) [nM] | IC50 ([1]; bound) [nM] | IC50 [3] [nM] | IC50 [4] [µM] | IC50 [5] [µM] | IC50 [8] [µM] | IC50 ([6]; bound) [nM] | IC50 ([7]; class symbol) [nM]
COc1cc(Nc2ccc3ncc(N4CCOCC4)nc3c2C#N)ccc1OCc1nccn1C [Example 48, 6-((3-methoxy-4-((1-methyl-1H-imidazol-2-yl)methoxy)phenyl)amino)-3-morpholinoquinoxaline-5-carbonitrile] |  | > 1000 | 300 to 1000 | > 1000 | > 1000 | 1000 to 10000 | > 10 | > 10 | > 10 |  | 
COc1ccc(COc2ccc(Nc3ccc4ncc(N5CCOCC5)nc4c3C#N)cc2Cl)cc1 [Example 63, 6-((3-chloro-4-((4-methoxybenzyl)oxy)phenyl)amino)-3-morpholinoquinoxaline-5-carbonitrile] | < 100 | > 1000 |  | > 1000 |  | > 10000 | 1 to 10 | > 10 | > 10 | > 1000 | 
COc1cc(Nc2ccc3ncc(N4CCOCC4)nc3c2C#N)ccc1OCc1ccc(N(C)C)nc1 [Example 104, 6-((4-((6-(dimethylamino)pyridin-3-yl)methoxy)-3-methoxyphenyl)amino)-3-morpholinoquinoxaline-5-carbonitrile] | < 100 | > 1000 | < 100 | > 1000 |  | 1000 to 10000 | 1 to 10 | 1 to 10 | > 10 |  | 
COc1ccc(COc2ccc(Nc3ccc4ncc(OC(C)C)nc4c3C#N)cc2OC)cn1 [Example 119, 3-isopropoxy-6-((3-methoxy-4-((6-methoxypyridin-3-yl)methoxy)phenyl)amino)quinoxaline-5-carbonitrile] | 100 to 300 | > 1000 |  |  |  | > 10000 | 1 to 10 | 1 to 10 | > 10 | > 1000 | 100 to 300
COc1cc(Nc2ccc3ncc(N4CCOCC4)nc3c2C#N)ccc1OCC1CCCO1 (stereo not shown) [Example 123, 6-((3-methoxy-4-((tetrahydrofuran-2-yl)methoxy)phenyl)amino)-3-morpholinoquinoxaline-5-carbonitrile] |  | > 1000 | 300 to 1000 | > 1000 | > 1000 | 1000 to 10000 | > 10 | 1 to 10 | > 10 |  | 

Second part, led by results:

IC50 ([1]; class symbol) [nM] | IC50 [2] [nM] | IC50 ([6]; class symbol) [nM] | IC50 ([7]; bound) [nM] | IC50 ([1]; bound) [nM] | Structure (SMILES) | IC50 [3] [nM] | IC50 [4] [µM] | IC50 [5] [µM] | IC50 [8] [µM] | IC50 ([6]; bound) [nM] | IC50 ([7]; class symbol) [nM]
300 to 1000 | > 1000 | 100 to 300 | > 1000 |  | COc1cc(Nc2ccc3ncc(N4CCOCC4)nc3c2C#N)ccc1OCc1ccncc1 [Example 46, 6-((3-methoxy-4-(pyridin-4-ylmethoxy)phenyl)amino)-3-morpholinoquinoxaline-5-carbonitrile] | 1000 to 10000 | 1 to 10 | 1 to 10 | > 10 |  | 
 | > 1000 | < 100 | > 1000 | > 1000 | COc1cc(Nc2ccc3ncc(N4CCOCC4)nc3c2C#N)ccc1OCc1cnccn1 [Example 51, 6-((3-methoxy-4-(pyrazin-2-ylmethoxy)phenyl)amino)-3-morpholinoquinoxaline-5-carbonitrile] | 300 to 1000 | > 10 | > 10 | > 10 |  | 
< 100 | > 1000 | < 100 | > 1000 |  | COc1cc(Nc2ccc3ncc(N4CCOCC4)nc3c2C#N)ccc1OCc1cc(C)on1 [Example 61, 6-((3-methoxy-4-((5-methylisoxazol-3-yl)methoxy)phenyl)amino)-3-morpholinoquinoxaline-5-carbonitrile] | 300 to 1000 | > 10 | > 10 | > 10 |  | 
300 to 1000 | > 1000 | 100 to 300 | > 1000 |  | C#CCOc1ccc(Nc2ccc3ncc(N4CCOCC4)nc3c2C#N)cc1OC [Example 92, 6-((3-methoxy-4-(prop-2-yn-1-yloxy)phenyl)amino)-3-morpholinoquinoxaline-5-carbonitrile] | 300 to 1000 | 1 to 10 | 1 to 10 | > 10 |  | 
100 to 300 | > 1000 | 100 to 300 | > 1000 |  | COc1cc(Nc2ccc3ncc(N4CCOCC4)nc3c2C#N)ccc1OCc1ccoc1 [Example 121, 6-((4-(furan-3-ylmethoxy)-3-methoxyphenyl)amino)-3-morpholinoquinoxaline-5-carbonitrile] | 300 to 1000 | 1 to 10 | 1 to 10 | > 10 |  | 
100 to 300 | > 1000 | < 100 | > 1000 |  | COc1cc(Nc2ccc3ncc(N4CCOCC4)nc3c2C#N)ccc1OCc1ccco1 [Example 122, 6-((4-(furan-2-ylmethoxy)-3-methoxyphenyl)amino)-3-morpholinoquinoxaline-5-carbonitrile] | 300 to 1000 | 1 to 10 | 1 to 10 | > 10 |  | 
